In brackets after ≈: the same amount, converted by molar mass.
What was measured:
[1] = test system: P. cepacia 23; assay: MIC, agar plate dilution method; format: cell-based, Pseudomonas cepacia; conditions: Burkholderia cepacia; P. cepacia 23; 10^6 CFU/ml; Sensitivity Disk Agar; read-out: Minimum Inhibitory Concentration
How it was run: (§1)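 Testing used Sensitivity Disk Agar plates containing graded compound levels and inoculated at 10^6 CFU/ml. Reference drugs cefotaxime and ceftazidime were tested in parallel, and results are given as MIC (μg/ml).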

[2] = test system: P. aeruginosa AKR17; assay: MIC, agar plate dilution method; format: cell-based, Pseudomonas aeruginosa; conditions: Pseudomonas aeruginosa; P. aeruginosa AKR17; 10^6 CFU/ml; Sensitivity Disk Agar; read-out: Minimum Inhibitory Concentration
How it was run: as §1

[3] = test system: P. aeruginosa AK109; assay: MIC, agar plate dilution method; format: cell-based, Pseudomonas aeruginosa; conditions: Pseudomonas aeruginosa; P. aeruginosa AK109; 10^6 CFU/ml; Sensitivity Disk Agar; read-out: Minimum Inhibitory Concentration
How it was run: as §1

[4] = test system: Gram-negative bacteria; conditions: background of the art; cited from earlier work
[5] = test system: Gram-positive bacteria and Gram-negative bacteria; conditions: background of the art; cited from earlier work
[6] = test system: Gram-positive bacteria; conditions: background of the art; cited from earlier work
[7] = test system: E. cloaceae Nek 39; assay: MIC, agar plate dilution method; format: cell-based; conditions: E. cloaceae Nek 39; 10^6 CFU/ml; Sensitivity Disk Agar; read-out: Minimum Inhibitory Concentration
How it was run: as §1

[8] = test system: S. marcescens No. 16-2; assay: MIC, agar plate dilution method; format: cell-based; conditions: Serratia marcescens, NO.162; S. marcescens No. 16-2; 10^6 CFU/ml; Sensitivity Disk Agar; read-out: Minimum Inhibitory Concentration
How it was run: as §1

[9] = test system: E. coli C/Rms149; assay: MIC, agar plate dilution method; format: cell-based; conditions: Escherichia coli, read-out: Minimum Inhibitory Concentration
How it was run: as §1

[10] = test system: E. coli W3630/Rms213; assay: MIC, agar plate dilution method; format: cell-based
How it was run: as §1

[11] = test system: C. freundii No. 7; assay: MIC, agar plate dilution method; format: cell-based; conditions: Citrobacter freundii; C. freundii No. 7; 10^6 CFU/ml; Sensitivity Disk Agar; read-out: Minimum Inhibitory Concentration
How it was run: as §1

[12] = test system: S. aureus NIHJJC-1; assay: MIC, agar plate dilution method; format: cell-based; conditions: Staphylococcus aureus, NIHJJC1; S. aureus NIHJJC-1; 10^6 CFU/ml; Sensitivity Disk Agar; read-out: Minimum Inhibitory Concentration
How it was run: as §1

[13] = test system: A. calcoaceticus No. 14; assay: MIC, agar plate dilution method; format: cell-based; conditions: Acinetobacter calcoaceticus; A. calcoaceticus No. 14; 10^6 CFU/ml; Sensitivity Disk Agar; read-out: Minimum Inhibitory Concentration
How it was run: as §1

[14] = test system: P. vulgaris OB1043; assay: MIC, agar plate dilution method; format: cell-based; conditions: Proteus vulgaris; P. vulgaris OB1043; 10^6 CFU/ml; Sensitivity Disk Agar; read-out: Minimum Inhibitory Concentration
How it was run: as §1

[15] = test system: E. coli ML1410/Rte16; assay: MIC, agar plate dilution method; format: cell-based; conditions: Escherichia coli, ML1410/RTE16, read-out: Minimum Inhibitory Concentration
How it was run: as §1

[16] = test system: S. aureus JS-1; assay: MIC, agar plate dilution method; format: cell-based; conditions: Staphylococcus aureus, JS1; S. aureus JS-1; 10^6 CFU/ml; Sensitivity Disk Agar; read-out: Minimum Inhibitory Concentration
How it was run: as §1

[17] = test system: E. coli NIHJJC-2; assay: MIC, agar plate dilution method; format: cell-based; conditions: Escherichia coli, NIHJJC2; E. coli NIHJJC-2; 10^6 CFU/ml; Sensitivity Disk Agar; read-out: Minimum Inhibitory Concentration
How it was run: as §1

[18] = test system: P. mirabilis JY10; assay: MIC, agar plate dilution method; format: cell-based; conditions: Proteus mirabilis; P. mirabilis JY10; 10^6 CFU/ml; Sensitivity Disk Agar; read-out: Minimum Inhibitory Concentration
How it was run: as §1

[19] = test system: K. pneumoniae No. 42; assay: MIC, agar plate dilution method; format: cell-based; conditions: Klebsiella pneumoniae; K. pneumoniae No. 42; 10^6 CFU/ml; Sensitivity Disk Agar; read-out: Minimum Inhibitory Concentration
How it was run: as §1

[20] = test system: E. coli CSH; assay: MIC, agar plate dilution method; format: cell-based
How it was run: as §1

[21] = test system: E. coli CSH2; assay: MIC, agar plate dilution method; format: cell-based; conditions: Escherichia coli, 10^6 CFU/ml, Sensitivity Disk Agar, read-out: Minimum Inhibitory Concentration
How it was run: as §1

[22] = test system: E. coli W3630/Rms212; assay: MIC, agar plate dilution method; format: cell-based
How it was run: as §1

[23] = test system: P. vulgaris No. 33; assay: MIC, agar plate dilution method; format: cell-based; conditions: Proteus vulgaris; P. vulgaris No. 33; 10^6 CFU/ml; Sensitivity Disk Agar; read-out: Minimum Inhibitory Concentration
How it was run: as §1

[24] = test system: P. maltophilia IID 1275; assay: MIC, agar plate dilution method; format: cell-based, Pseudomonas maltophilia; conditions: Stenotrophomonas maltophilia, IID1275; P. maltophilia IID 1275; 10^6 CFU/ml; Sensitivity Disk Agar; read-out: Minimum Inhibitory Concentration
How it was run: as §1

Compound: CO/N=C(\C(=O)N[C@@H]1C(=O)N2C(C(=O)O)=C(COC(C)=O)CS[C@H]12)c1csc(N)n1 [Cefotaxime, reference compound]
- MIC [1]: 3.12 µg/mL (≈ 6.85 µM)
- MIC [2]: > 25 µg/mL
- MIC [3]: 6.25 µg/mL (≈ 13.7 µM)
- antibacterial activity (in words) [4]: excellent activities
- antibacterial activity (in words) [5]: excellent antibacterial activities
- antibacterial activity (in words) [6]: relatively poor antibacterial activities
- MIC [7]: 0.78 µg/mL (≈ 1.71 µM)
- MIC [8]: 6.25 µg/mL (≈ 13.7 µM)
- MIC [9]: ≤ 0.05 µg/mL
- Minimum Inhibitory Concentration ([10]; E. coli W3630/Rms213, 10^6 CFU/ml, Sensitivity Disk Agar): 0.20 µg/mL
- MIC ([10]; Escherichia coli, W3630/RMS213, read-out: Minimum Inhibitory Concentration): 0.2 µg/mL (≈ 0.439 µM)
- MIC [11]: 0.39 µg/mL (≈ 0.856 µM)
- MIC [12]: 0.78 µg/mL (≈ 1.71 µM)
- MIC [13]: 25 µg/mL (≈ 54.9 µM)
- MIC [14]: 0.39 µg/mL (≈ 0.856 µM)
- MIC [15]: ≤ 0.05 µg/mL
- MIC [16]: 6.25 µg/mL (≈ 13.7 µM)
- MIC [17]: ≤ 0.05 µg/mL
- MIC [18]: ≤ 0.05 µg/mL
- MIC [19]: ≤ 0.05 µg/mL
- Minimum Inhibitory Concentration ([20]; E. coli CSH, 10^6 CFU/ml, Sensitivity Disk Agar): 0.10 µg/mL
- MIC ([20]; Escherichia coli, read-out: Minimum Inhibitory Concentration): 0.1 µg/mL (≈ 0.22 µM)
- MIC [21]: ≤ 0.05 µg/mL
- Minimum Inhibitory Concentration ([22]; E. coli W3630/Rms212, 10^6 CFU/ml, Sensitivity Disk Agar): 0.10 µg/mL
- MIC ([22]; Escherichia coli, W3630/RMS212, read-out: Minimum Inhibitory Concentration): 0.1 µg/mL (≈ 0.22 µM)
- MIC [23]: ≤ 0.05 µg/mL
- MIC [24]: > 25 µg/mL
